Marks after values point to notes of the source that are not given here.
Target: T1, Styrene monooxygenase (StyAB), FAD-dependent monooxygenase component (StyA) (Pseudomonas sp, UniProt O50214)
T1 construct: made in house; host or cells: Escherichia coli JM101
T1 sequence (O50214 1-415): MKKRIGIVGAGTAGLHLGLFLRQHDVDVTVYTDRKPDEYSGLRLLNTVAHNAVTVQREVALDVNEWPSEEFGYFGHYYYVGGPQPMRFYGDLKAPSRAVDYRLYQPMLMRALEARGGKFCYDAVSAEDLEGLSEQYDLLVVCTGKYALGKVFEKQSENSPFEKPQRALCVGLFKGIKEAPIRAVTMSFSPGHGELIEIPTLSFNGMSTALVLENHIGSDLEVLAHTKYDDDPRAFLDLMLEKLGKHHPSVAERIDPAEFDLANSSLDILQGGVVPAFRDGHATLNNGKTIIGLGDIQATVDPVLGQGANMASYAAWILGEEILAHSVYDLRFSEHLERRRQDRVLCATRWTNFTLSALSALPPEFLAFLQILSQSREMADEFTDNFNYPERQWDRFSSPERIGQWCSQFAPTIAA
Assay: Electroenzymatic epoxidation of styrene derivatives by StyA with direct electrochemical FAD regeneration
Assay type: biochemical
Details: for ee-value: optical purity of the (S)-epoxide product of the electroenzymatic epoxidation
Description: Initial experiments on the electroenzymatic epoxidation were performed with trans-β-methyl styrene as substrate. Electrolyses were performed potentiostatically applying a cathode potential of −550 mV vs. Ag/AgClsat. No product formation was detectable when either StyA or FAD was omitted from the reaction medium. […] Similarly, a broad variety of diversely substituted vinylaromatic compounds could be transformed to the more than 98% optically pure corresponding (S) epoxides (Table 1).
StyA was enriched from recombinant Escherichia coli JM101 as described previously^[35]. The purity of the lyophilized biocatalyst was approximately 70% (as determined by SDS gel-electrophoresis).
Electrolyses were performed in a thermostatted stirred tank reactor. Cylindrical carbon felt served as cathode (working electrode) and the potential was adjusted versus a saturated Ag/AgClsat. reference electrode. The dimensions of the working electrode are given a macroscopic area (corresponding to an average of 27.1±2.1 mg cm^−2). Conditions of either a divided or an undivided cell were chosen. For the divided cell, the Pt-wire counter electrode was placed in a dialysis membrane; otherwise a Pt-foil (Ø1 cm) was used. After supplementing the reactor with the reaction components indicated a cathode potential of −550 mV vs. Ag/AgClsat was applied. In case of divided cell, O2 was supplied by heterogeneous intake of air (intake rates were estimated with a Hewlett Packard soap film flowmeter; under the conditions of an undivided cell, O2 was generated at the counter electrode.
Reaction rates (and enzyme performances calculated thereof were determined based on the product formation as determined by HPLC using protocols previously reported.^[34, 35]

[1] = potassium phosphate buffer 50 mM pH 7.5, T = 30° C., c(StyA) = 2.13 μM, c(FAD) = 300 μM, catalase 480 U mL^−1, substrate 2 mM, cathode 14 cm^2, −550 mV vs. Ag/AgClsat

In the case of C=Cc1cccc(Cl)c1, the Rate (as general conditions but T = 25° C., activity determined after 15 min) is reported as 27.7 [b] U g^−1.

For C/C=C/c1ccccc1 [trans-β-methyl styrene], the Rate [1] was 35.5 U g^−1.

C1=Cc2ccccc2CC1 gave a Rate [1] of 58.9 U g^−1.

Work on C[C@]1(c2ccccc2)CO1 yielded an ee-value of 99.5%.

In the case of Clc1cccc([C@H]2CO2)c1, the ee-value is reported as 98.1%.

In the case of c1ccc2c(c1)CC[C@H]1O[C@@H]21, the ee-value is reported as 99.2%.

Work on c1ccc([C@H]2CO2)cc1 yielded an ee-value of 98.5%.

For C[C@@H]1O[C@H]1c1ccccc1 [(1S,2S)-1-phenylpropylene oxide], the ee-value was >99.9% and the “Optical purity of product” value (substrate trans-β-methyl styrene, −550 mV vs. Ag/AgClsat, all reaction components present) was “practically enantiopure”.

Work on C=C(C)c1ccccc1 yielded a Rate [1] of 14.6 U g^−1.

For C=Cc1ccccc1, the Rate [1] was 28.1 U g^−1.
